Laboratory results as given in patent publication US8309767B2, “2-aminobenzoyl derivatives” (Neurim Pharmaceuticals (1991) Ltd., priority 2003, dated 2012).

Key:
[1] = test system: MPTP-treated mice; experiment: Anti-Parkinsonian activity: motor activity of MPTP-treated mice with/without a subthreshold dose of L-Dopa; format: in vivo, C57 BL/6 mice; settings: for LOCOMOTION / REARING / TOTAL ACTIVITY: mean ± SD
Method: Evaluation of the anti-Parkinsonian activity using MPTP-treated mice with/without a subthreshold dose of L-Dopa
Animals: six month old male C57 BL/6 mice, weighing 22-25 g were used. Following arrival at the laboratory, the mice were allowed to acclimatise for two weeks in a room with controlled temperature (21±1° C.), and a constant light-dark schedule (12 hr on/12 hr off, lights on between 06.00 and 18.00 hrs). Free access to food and water was maintained throughout. They were housed in groups of 12 animals and tested only during the hours of light (08.00-15.00 hrs). All testing was performed in a normally lighted room. Each test chamber (i.e. activity test cage) was placed in a soundproofed wooden box with 12 cm thick walls and front panels and had dimmed lighting.
Behavioral measurements and apparatus: An automated device, consisting of macrolon rodent test cages (40×25×15 cm) each placed within two series of infra-red beams (at two different heights, one low and one high, 2 and 8 cm, respectively, above the surface of the sawdust, 1 cm deep), was used to measure spontaneous and/or drug-induced motor activity of MPTP and control mice. The following parameters were measured: LOCOMOTION was measured by the low grid of infrared beams. Counts were registered only when the mouse in the horizontal plane, ambulating around the test-cage. REARING was registered throughout the time when at least one high level beam was interrupted, i.e. the number of counts registered was proportional to the amount of time spent rearing. TOTAL ACTIVITY was measured by a sensor (a pick-up similar to a gramophone needle, mounted on a lever with a counterweight) with which the test cage was constantly in contact. The sensor registered all types of vibration received from the test cage, such as those produced both by locomotion and rearing as well as shaking, tremors, scratching and grooming.
Behavioral measurements (locomotion, rearing and total activity): Twelve days after MPTP injections (2×40 mg/kg, s.c., 24 hr interval), the mice were injected i.p with 2-(2-aminobenzoyl)-N-(2,4-dinitrophenyl)ethylamine (0.3, 1, 3, 10 mg/kg) or vehicle (10% DMSO, 1% CMC) and immediately thereafter placed in the activity test chambers and their motor behaviour were monitored for 60 min. After 60 min, the mice were injected with 5 mg/kg L-Dopa (s.c) and then replaced in the test chamber and activity measurements maintained for a further 240 min. Each dose was separated by two days, starting from the lowest dose.
Table 1 presents the mean (± standard deviations) locomotion, rearing and total activity counts of MPTP-treated and control mice administered either 2-(2-aminobenzoyl)-N-(2,4-dinitrophenyl)ethylamine or vehicle administered with a subthreshold dose of L-Dopa. 1 % level of significance is represented by an asterisk (Tukey HSD test).

[2] = test system: NMDA receptors; experiment: Electrophysiological characterisation of NMDA-activated currents in freshly isolated hippocampal neurones (whole-cell patch clamp); format: cell-based; settings: rat hippocampal neurones
Method: Electrophysiological characterisation of NMDA-activated currents in freshly isolated hippocampal neurones of rat.
Isolation of hippocampal neurons: Wistar rats (12-14 days) were decapitated without anaesthesia and the hippocampus was removed. It was manually cut into slices (0.2-0.4 mm), in a solution containing (mM): 150 NaCl; 5 KCl; 1.25 NaH2PO4; 2 CaCl2; 2 MgCl2; 26 NaHCO3; 20 glucose. Slices were preincubated in this solution for 30 min at room temperature. The enzymatic treatment proceeded in the same solution with lower Ca2+ concentration (0.5 mm) containing 0.4 mg/ml protease from aspergillus oryzae. The incubation in the enzyme solution proceeded at 32° C. within 10 min. […]
Current recording and data analysis: The drug-containing solutions were applied by the fast “concentration clamp” method using “jumping table” set-up (Pharma Robot, Kiev). The currents were recorded with patch clamp technique in the whole-cell configuration. […]
NMDA-activated currents: The currents were filtered at 3 kHz (three-pole active Bessel filter) digitally sampled at the rate […] for NMDA activated currents. NMDA-induced transmembrane currents were measured in the presence of 10 μM glycine and 300 μM L-aspartate in the control and test solutions. The currents were recorded at holding potential −70 mV. […]

[3] = MPTP mice, 0.3 mg/kg i.p. with subthreshold L-Dopa 5 mg/kg s.c.
[4] = MPTP mice, 1 mg/kg i.p. with subthreshold L-Dopa 5 mg/kg s.c., * 1% significance
[5] = MPTP mice, 3 mg/kg i.p. with subthreshold L-Dopa 5 mg/kg s.c., * 1% significance
[6] = MPTP mice, 10 mg/kg i.p. with subthreshold L-Dopa 5 mg/kg s.c., * 1% significance

## Nc1ccccc1C(=O)CCNc1ccc([N+](=O)[O-])cc1[N+](=O)[O-] [2-(2-aminobenzoyl)-N-(2,4-dinitrophenyl)ethylamine]
[1]; 1, 3 or 10 mg/kg, compared to the MPTP vehicle group
  locomotion, rearing and total activity of MPTP-treated mice: improved significantly
[1]; [3]
  LOCOMOTION: 273 ± 64 counts
  REARING: 290 ± 73 counts
  TOTAL ACTIVITY: 5160 ± 1093 counts
[1]; [4]
  LOCOMOTION: 473 ± 108 counts
  REARING: 582 ± 145 counts
  TOTAL ACTIVITY: 6250 ± 625 counts
[1]; [5]
  LOCOMOTION: 510 ± 107 counts
  REARING: 731 ± 110 counts
  TOTAL ACTIVITY: 6563 ± 781 counts
[1]; [6]
  LOCOMOTION: 470 ± 110 counts
  REARING: 619 ± 102 counts
  TOTAL ACTIVITY: 6250 ± 625 counts
[1]; MPTP mice, any dose (0.3-10 mg/kg i.p.), compared to MPTP-treated vehicle mice
  effect on motor behaviour in the first 60-min period before L-Dopa: no effect at any dose
[1]; MPTP mice, with L-Dopa 5 mg/kg s.c.
  all three behavioural parameters when administered together with a subthreshold dose of L-Dopa: improved significantly
[1]; vehicle control (non-MPTP) animals
  effect on motor variables in vehicle control animals: no effects in any variable
[2]
  activity on NMDA receptors: blocking activity
